# Assay results reported in patent US20250041577A1, “SHORT-PULSE SONODYNAMIC TREATMENT APPARATUS” (Insightec, Ltd., priority 2021, published 2025).
# Read-outs that look alike come from different tables or passages of the source.
# Key:
# [1] = Plasma and blood pharmacokinetics of 5-ALA and PPIX after IV SONALA-001 (LC-MS/MS); format: in vivo; conditions: human, plasma; 10 mg/kg IV Sonala-001; recurrent GBM patients; read-out: median Cmax for 5-ALA in plasma
# Procedure: Six hours prior to MRgFUS, adult patients with recurrent GBM are administered SONALA-001 (10 mg/kg), an investigational IV formulation of […]. Oral […] is an FDA- and […] agent used in fluorescence-guided surgery to visualize glioma infiltration and maximize extent of resection. LCMS/MS methods were developed to determine the levels of […] and PPIX in plasma and blood following IV administration of SONALA-001. Samples were analyzed using SCIEX ExionLC UHPLC system and the detection was performed on SCIEX QTRAP 6500+ mass spectrometer by multiple reaction monitoring mode to monitor the precursor-to-product ion transitions in positive electrospray ionization mode.
# [2] = Drug and device safety of 5-ALA SDT in recurrent GBM patients (Phase 0/1); format: in vivo, human; conditions: three adult recurrent GBM patients
# Procedure: Six hours prior to MRgFUS, adult patients with recurrent GBM are administered SONALA-001 (10 mg/kg), an investigational IV formulation of […]. Oral […] is an FDA- and […] agent used in fluorescence-guided surgery to visualize glioma infiltration and maximize extent of resection. The […] Model 4000 Type-2 system is an investigational MRgFUS with a 1000-element transducer utilizing real-time MR imaging during treatment delivery. It includes the same monitoring capabilities as the ablative, FDA-approved Type-1 system for essential tremor and tremor-dominant Parkinson's Disease. However, the Type-2 device can target a large range of brain anatomy and operates at relatively low ultrasound frequencies and intensities, preventing tissue heating when inducing sonoluminescence. Intra-procedural MR thermometry automatically triggers an auto-stop if any tissue approaches ablative temperatures. […] Patients must have completed standard-of-care chemotherapy and radiotherapy prior to radiographic recurrence. In a Dose-Escalation Arm, 9-18 patients are assigned to one of three ascending acoustic energy doses of […], measured at transducer surface), followed by a four-day interval until tumor resection. In each patient, half the tumor volume, including Gadolinium-enhancing and non-enhancing tumor, is targeted with MRgFUS and the other half serves as an internal control. […]
# [3] = human, in vivo
# Excerpt: Performed similarly to Example 1 with same study drug but for Diffuse Intrinsic Pontine Glioma (DIPG) and with typically only radiation therapy performed prior.
# Performed similarly to Example 1 but with an increase in the number of subspots per sonication (32 subspots). Targets were overlapped with a 2.0-3.0 mm spot to spot separation and Duty Cycle within 4-32% throughout the study. Pulse duration ranged from 0.0002 to 0.002 second.
# Similar to Example 1, this multi-center, non-randomized, open label, first-in-pediatric Phase 1/2 study is a drug dose (5, 10, or 15 mg/kg SONALA-001) and focused ultrasound energy (200J, 400J, or 800J) escalation study containing 18-24 subjects, 9 cohorts of approximately 3 patients each. These pediatric patients with DIPG must have completed standard-of-care radiotherapy prior to radiographic treatment. No resection due to location but biopsy can be obtained. In the first patient, half of the Pons volume is targeted with MRgFUS and the other half serves as an internal control for safety. If no DLTs or any grade intracranial hemorrhage and any clinical symptoms (CTCAE, Version 5.0, i.e., intracranial hemorrhage Grades 2-5) are observed, the next patients will receive treatment over the entire pons. The intervention model will be sequential assignment using a Bayesian optimal interval (BOIN) dose escalation method. […]
smiles,measurement,setting,value
"NCC(=O)CCC(=O)O [5-ALA, 5-aminolevulinic acid]",Cmax,[1],307 µM
same,5-ALA-related photosensitivity,[2],No patient demonstrated 5-ALA-related photosensitivity
same,5-ALA-related photosensitivity,[3],No patient demonstrated 5-ALA-related photosensitivity
